Source: article PMC8533149 (Biomolecules, 2021)
Like-named read-outs stand apart in the source and are kept apart here.

Assays:
[1] = tested on: HIV-1 LTR-III G-quadruplex (FAM/TAMRA-labeled LTR-III); assay: FRET melting assay, LTR-III G4; type: binding; settings: for LTR-III (average): Table S12, average stabilization; for LTR III stabilization: Figure 7, stabilization group
In short: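 Melting is followed by FAM fluorescence (ex 495/em 520 nm) while heating at 1 °C/min from 30 to 95 °C. Labelled ODN at 0.5 μM, pre-annealed in 10 mM Li cacodylate, 100 mM KCl, pH 7.4, mixed with ligand at 50:1 (25 μM), or 20:1 and 2:1 for titration. ΔTm is relative to the 0.25% DMSO buffer control.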

[2] = tested on: human telomeric sequence Telo G4; assay: FRET melting assay, Telo; type: binding; settings: 50:1
Experimental: (§1) To evaluate stabilizing properties of the ligands in a complex with oligodeoxyribonucleotides (ODNs) melting with fluorescence registration was used. ODN (0.5 μM) (Table 1), labeled with 6-carboxyfluorescein (FAM) and 6-carboxytetramethylrhodamine (TAMRA) at the 5′- and 3′-end, respectively, were folded in lithium cacodylate buffer (10 mM, pH 7.4) with 100 mM KCl by heating at 95 °C for 5 min and gradually cooling to r.t. GFP chromophore analogs (5 mM solution in DMSO) were diluted with the same buffer to the final concentration of 25 μM and mixed with an equal volume of 0.5 μM ODN solution resulting in a molar ratio of 50:1 (total volume was 50 μL). For the titration experiments molar ratios of 20:1 and 2:1 were used. Samples were analyzed using DTprime qPCR system (DNA-Technology LLC, Moscow, Russia). Fluorescence was registered by detection of FAM emission at 520 nm upon excitation at 495 nm in the temperature range of 30–95 °C with 1 °C/min gradient. Tm was determined using the instrument software and ΔTm was calculated relative to ODN Tm in a buffer solution containing 0.25% (v/v) DMSO. The primary and secondary screening were carried out in singlicate and triplicate, respectively.
(§2) Initially we screened an in-house library of 440 synthetic GFP chromophore analogues for interaction with HIV-1 LTR-III sequence, which modulates HIV-1 promoter activity, using high-throughput screening (HTS) FRET melting assay (Table S1). […] We selected 11 compounds (Figure 2A), displaying stabilization in the range of 2.4–7.8 °C, and evaluated their ability to stabilize other G4-forming sequences, including human telomeric sequence Telo (one of the most common G4 structures in the human genome, having two conformations, Hybrid-1 and Hybrid-2 [36]) and model G4 […] (the G-rich Pu39 region of the P1 promoter of the oncogene BCL-2, an apoptosis regulator [37] with polymorphic conformational structure), as well as double stranded oligonucleotide (duplex) control sequence (Figure 2B, Table S2).

[3] = tested on: Pu39 G4 (G-rich region of the P1 promoter of BCL-2); assay: FRET melting assay, Pu39; type: binding, human; settings: 50:1
Experimental: as §1, §2

[4] = tested on: dsDNA (double stranded control sequence); assay: FRET melting assay, duplex control; type: binding; settings: 50:1
Experimental: as §1, §2

[5] = Cytotoxicity test; type: cell-based; settings: human, MT4 cells (human T cell leukemia), Figure 7
Experimental: (§3) Green monkey kidney (Vero, Beach, FL, USA) cell line was maintained in 2 × Eagle MEM (“Chumakov FSC R&D IBP RAS”, Russia) with 5% FBS with L-glutamine, penicillin and streptomycin. […] HIV-1 strain NL4-3 was obtained via cell transfection with pNL4-3 3 (ARP2006, NIBSC, Potters Bar, UK).
(§4) MT4 cell suspensions were added to the wells with compound dilutions and DMSO control (approx. 2 × 10^4 cells per well). […] All experimental procedures were performed in two replicates and were repeated two to four times. Mean and SD were calculated with OriginPro 8 (OriginLab, St. Louis, MO, USA).

[6] = tested on: MT4 cells; assay: Cytotoxicity test; type: cell-based; settings: Table S12, nine days
Experimental: as §3, §4

[7] = tested on: HIV-1 strain NL4-3 in MT4 cells; assay: Cytopathic effect inhibition test; type: cell-based; settings: HIV-1 NL4-3, MT4 cells
Experimental: Human T cell leukemia (MT4) cell line was maintained in RPMI-1640 (“Chumakov FSC R&D IBP RAS”, Moscow, Russia) with 10% of fetal bovine serum (FBS, Invitrogen, Waltham, MA, USA), L-glutamine and gentamicin. Green monkey kidney (Vero, Beach, FL, USA) cell line was maintained in 2 × Eagle MEM (“Chumakov FSC R&D IBP RAS”, Russia) with 5% FBS with L-glutamine, penicillin and streptomycin. Cell cultures were incubated in the present of 5% CO2 at 37 °C. HIV-1 strain NL4-3 was obtained via cell transfection with pNL4-3 3 (ARP2006, NIBSC, Potters Bar, UK).
Eight two-fold dilutions of stock solutions of the compounds in two replicates were prepared in RPMI-1640 (“Chumakov FSC R&D IBP RAS”, Russia). Compound dilutions were mixed with equal volumes of the virus suspension containing 100 CCID50 (50% tissue culture infectious dose). Control cells were treated with the same sequential concentrations of DMSO as in compound dilutions. Then, the MT4 cell suspension (approx. 2 × 10^4 cells per well) in RPMI-1640 containing 10% FBS (Invitrogen, South America) was added to experimental mixtures. A final concentration series started from 25 μM. Each experiment contained virus dose titration in the inoculate to assure the acceptable dose-range. After a nine-day incubation (5% CO2, at 37 °C), cytopathic effect (CPE) was visually accessed via microscope. EC50 values were calculated according to the Karber method. All experimental procedures were performed in two replicates and were repeated two to four times. Mean and SD were calculated with OriginPro 8 (OriginLab, St. Louis, MO, USA).

[8] = Table S1 primary screening, ligand:ODN 50:1, singlicate
[9] = Table S2, primary screening lead compounds
[10] = LTR-III G4/ligand molar ratio 1:20
[11] = LTR-III G4/ligand molar ratio 1:50
[12] = Table S3 primary screening of newly synthesized analogs, 50:1
[13] = Table S5, newly synthesized compounds
[14] = Human immunodeficiency virus 1, NL43, 216 h, Table S12, CPE, nine-day incubation, read-out: EC50
[15] = Human immunodeficiency virus 1, NL43, Figure 7, read-out: Antiviral activity EC50 (HIV)
[16] = Table S12, CPE, nine-day incubation

Structure (SMILES)	LTR-III ΔTm [1, 8] [°C]	LTR-III (average) [1]	ΔTm Telo [2, 9] [°C]	ΔTm Pu39 [3, 9] [°C]	ΔTm Duplex [4, 9] [°C]	CC50 at 9 days [5] [nM]	СС50 (MT4) [6] [µM]	LTR III stabilization [1] [°C]	ΔTm, titration ([1]; LTR-III G4/ligand molar ratio 1:2) [°C]	ΔTm, titration [1, 10] [°C]	ΔTm, titration [1, 11] [°C]	LTR-III ΔTm [1, 12] [°C]	ΔTm Telo [2, 13] [°C]	ΔTm Pu39 [3, 13] [°C]	ΔTm Duplex [4, 13] [°C]	EC50 [7, 14] [nM]	EC50 [7, 15] [nM]	EC50 [7, 16]	ΔTm LTR III ([1]; Table S2, primary screening lead compounds, 50:1) [°C]
COc1ccc(/C=C2\N=C(CC(C)C)C(=O)N(O)C2=O)cc1 [M 813]	2.9	1,65 °C	-0.6±0.9	-1.5±1	0±0.04	500 ± 200	0.46 ± 0.16												
CN1C(=O)/C(=C/c2cc[n+](C)cc2)N=C1c1ccccc1 [M 903.2]	2.8	2,3 °C	0.4±0.1	-1±0.5	0.1±0.07	> 25000	> 25												
COc1cc(/C=C2N=C(/C=C/c3cc(OC)c(O)c(OC)c3)N(C)C\2=O)cc(OC)c1O [N1193]		14 °C				2000 ± 1000	2.3 ± 1.1	> 3	2.4±0.6	9.1±0.6	13.1±0.2	14	9.5±0.1	3.8±0.04	0.6±0.1				
COc1cc(/C=C2N=C(/C=C/C=C/c3ccc(N(C)C)cc3)N(C)C\2=O)cc(OC)c1O [N1195]		4,2 °C				6000 ± 3000	5.9 ± 2.6	> 3				4.2	0.9±0.3	1.8±0.1	0.1±0.1	3780 ± 910	3800 ± 900		
COc1cc(/C=C2N=C(/C=C/c3ccnc4ccccc34)N(C)C\2=O)cc(OC)c1O [N1196]						> 25000	> 25	> 3		7.9±0.4	11.3±0.3	11.7	8.7±0.2	7.2±0.4	0.5±0.1				
COc1c(O)ccc(/C=C2N=C(/C=C/c3ccnc4ccccc34)N(C)C\2=O)c1OC [N1197]		11,3 °C				1700 ± 800	1.66 ± 0.79	> 3		8.5±0.3	11.4±0.2	11.3	4.6±0.2	7±0.7	-0.4±0.2				
COc1c(O)ccc(/C=C2N=C(/C=C/c3cc(Cl)nc(Cl)c3)N(C)C\2=O)c1OC [N1198]		6,5 °C				3000 ± 1000	2.8 ± 1.1	> 3				6.5	0.9±0.2	0.1±0.1	0±0.1	1780 ± 380	1800 ± 400	micromolar range	
COc1c(O)ccc(/C=C2N=C(/C=C/c3cc(Br)c(O)c(Br)c3)N(C)C\2=O)c1OC [N1199]		4,3 °C				5000 ± 3000	4.6 ± 2.5	> 3				4.3	0.9±0.1	0±0.2	0±0.1	3300 ± 1100	3000 ± 1000		
CCNc1ccc(/C=C2\N=C(C)N(C)C2=O)cc1 [N 683.1]	5	3,1 °C	-0.1±0.04	1.4±0.6	0±0.04	> 25000	> 25	> 3											
COc1ccc(OC)c(/C=C2N=C(/C=C/c3ccncc3)N(C)C\2=O)c1 [N 848.2]	2.6	3,2 °C	2.1±0.01	0.1±0.4	0.4±0.04	6000 ± 2000	6.4 ± 1.8	> 3											
COc1ccc(O)c(/C=C2N=C(/C=C/c3ccncc3)N(C)C\2=O)c1 [N 848.3]	2.9	3,3 °C	1.1±0.2	0.7±0.3	0.1±0.09	6000 ± 2000	5.5 ± 2.2	> 3											
COc1cc(/C=C2N=C(/C=C/c3ccncc3)N(C)C\2=O)cc(OC)c1O [N 908]	2.4		0.1±0.1	-0.7±0.2	0±0.04														
COc1cc(/C=C2N=C(/C=C/c3cc(Cl)nc(Cl)c3)N(C)C\2=O)cc(OC)c1O [N 960a]	5.3	5,2 °C	1±0.7	0.5±0.01	-0.5±0.07	> 25000	> 25	> 3											
COc1ccc(/C=C/C2=NC(=C\c3ccc(O)cc3OC)/C(=O)N2C)cc1 [N 1052]	4.6	4,5 °C	3.9±0.1	2.1±0.2	-0.1±0.04	7000 ± 3000	6.6 ± 3.1	> 3											
COc1c(O)ccc(/C=C2N=C(/C=C/c3ccncc3)N(C)C\2=O)c1OC [N 1068.2]	7.1	6,9 °C	1.2±0.2	0±0.4	0.1±0.04	3000 ± 1000	3.0 ± 1.0	> 3								1780 ± 380	1800 ± 400	micromolar range	
COc1cc(O)ccc1/C=C1N=C(/C=C/c2ccnc3ccccc23)N(C)C\1=O [ZS 331]		3,7 °C	2.5±0.3	0.8±0.2	-0.2±0.1	1200 ± 600	1.17 ± 0.55	> 3											3.3±0.2
